Counter-ions that a name gives are not always drawn.
Tested on: Target C
Assay: HiBiT protein abundance assay, Target C (K562 HiBiT knock-in cells)
Assay type: cell-based, human
Conditions: 24 hours
Summary of the method: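 Protein abundance read by HiBiT lytic luminescence after 24 h compound exposure (37 °C) of knock-in K562 cells, 10000 cells/well in IMDM+1% FBS. Dosing: 10 points, 3-fold, top 10 μM final, ≤0.25% DMSO. Four-parameter logistic fit gave concentration reducing abundance to 50% of untreated control.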

SMILES	IC50 [µM]
CCN1CCC(c2ccc(C(=O)Nc3cc(F)c4nc(C)cn4c3)c3nnccc23)CC1 [Compound 141]	1 to 10
Cc1cn2cc(NC(=O)c3ccc(N4CCNCC4)c4ccnnc34)cc(C#N)c2n1 [Compound 167, N-{8-cyano-2-methylimidazo[1,2-a]pyridin-6-yl}-5-(piperazin-1-yl)cinnoline-8-carboxamide trifluoroacetic acid salt]	1 to 10
Cc1cn2cc(NC(=O)c3ccc(N(C)[C@@H]4C[C@H]5CC[C@@H](C4)N5)c4ccnnc34)cc(F)c2n1 [Compound 156]	> 10
Cc1cn2cc(NC(=O)c3ccc(N4CCNCC4)c4ccnnc34)nc(C)c2n1 [Compound 164, N-{2,8-dimethylimidazo[1,2-a]pyrazin-6-yl}-5-(piperazin-1-yl)cinnoline-8-carboxamide 2,2,2-trifluoroacetate]	> 10
CNC1CCN(c2ccc(C(=O)Nc3cc(F)c4nc(C)cn4c3)c3nccnc23)C1 (stereo not shown) [Compound 190, N-{8-fluoro-2-methylimidazo[1,2-a]pyridin-6-yl}-8-[3-(methylamino)pyrrolidin-1-yl]quinoxaline-5-carboxamide]	1 to 10
Cc1ccc2c(N3C[C@@H](C)N[C@@H](C)C3)ccc(C(=O)Nc3cc(F)c4nc(C)cn4c3)c2n1 [Compound 214, 5-[(3R,5S)-3,5-dimethylpiperazin-1-yl]-N-{8-fluoro-2-methylimidazo[1,2-a]pyridin-6-yl}-2-methylquinoline-8-carboxamide]	1 to 10
CC[C@@H]1CN(c2ccc(C(=O)Nc3cc(F)c4nc(C)cn4c3)c3nnccc23)CCN1 [Compound 151]	1 to 10
CN[C@@H]1CCN(c2ccc(C(=O)Nc3cc(F)c4nc(C)cn4c3)c3nc(OC)cnc23)C1 [Compound 204, (R)—N-{8-fluoro-2-methylimidazo[1,2-a]pyridin-6-yl}-3-methoxy-8-[3-(methylamino)pyrrolidin-1-yl]quinoxaline-5-carboxamide; trifluoroacetic acid]	1 to 10
Cc1cc2c(N3CCNCC3)ccc(C(=O)Nc3cc(F)c4nc(C)cn4c3)c2nn1 [Compound 159]	1 to 10
COc1nc(NC(=O)c2ccc(N3CCNCC3)c3ccnnc23)cn2cc(C)nc12 [Compound 179, N-{8-methoxy-2-methylimidazo[1,2-a]pyrazin-6-yl}-5-(piperazin-1-yl)cinnoline-8-carboxamide]	> 10
Cc1cn2cc(NC(=O)c3ccc(N4CCNCC4)c4ccnnc34)cc(C)c2n1 [Compound 125]	1 to 10
Cc1cn2cc(NC(=O)c3ccc(N4CCNCC4)c4ccnnc34)cc(C(C)O)c2n1 (stereo not shown) [Compound 182, N-[8-(1-hydroxyethyl)-2-methylimidazo[1,2-a]pyridin-6-yl]-5-(piperazin-1-yl)cinnoline-8-carboxamide trifluoroacetate]	> 10
Cc1cnc2c(N3CCC(N(C)C)CC3)ccc(C(=O)Nc3cc(F)c4nc(C)cn4c3)c2n1 [Compound 200, 8-[4-(dimethylamino)piperidin-1-yl]-N-{8-fluoro-2-methylimidazo[1,2-a]pyridin-6-yl}-3-methylquinoxaline-5-carboxamide]	0.1 to 1
COCCOc1cc2c(N3CCNCC3)ccc(C(=O)Nc3cc(F)c4nc(C)cn4c3)c2nn1 [Compound 199, N-{8-fluoro-2-methylimidazo[1,2-a]pyridin-6-yl}-3-(2-methoxyethoxy)-5-(piperazin-1-yl)cinnoline-8-carboxamide]	1 to 10
Cc1cnc2c(C(=O)Nc3cc(F)c4nc(C)cn4c3)ccc(N3CCC(N(C)C)CC3)c2n1 [Compound 208, 8-[4-(dimethylamino)piperidin-1-yl]-N-{8-fluoro-2-methylimidazo[1,2-a]pyridin-6-yl}-2-methylquinoxaline-5-carboxamide; bis(trifluoroacetic acid)]	1 to 10
Cc1cn2cc(NC(=O)c3ccc(N4CCC(N(C)C)CC4)c4ccnnc34)cc(F)c2n1 [Compound 137]	0.1 to 1
Cc1cn2cc(NC(=O)c3ccc(N4CCN5CCC[C@@H]5C4)c4ccnnc34)cc(F)c2n1 [Compound 153]	1 to 10
Cc1cn2nc(NC(=O)c3ccc(N4CCNCC4)c4ccnnc34)cc2c(C)n1 [Compound 123]	1 to 10
Cc1cn2cc(NC(=O)c3ccc(N4CCNCC4)c4ccnnc34)[nH]c(=O)c2n1 [Compound 177, N-{2-methyl-8-oxo-7H-imidazo[1,2-a]pyrazin-6-yl}-5-(piperazin-1-yl)cinnoline-8-carboxamide trifluoroacetic acid salt]	0.1 to 1
Cc1ccc2c(N3CCNCC3)ccc(C(=O)Nc3cc(F)c4nc(C)cn4c3)c2n1 [Compound 162, N-{8-fluoro-2-methylimidazo[1,2-a]pyridin-6-yl}-2-methyl-5-(piperazin-1-yl)quinoline-8-carboxam-ide, trifluoroacetic acid]	1 to 10
CNC1CCN(c2ccc(C(=O)Nc3cc(F)c4nc(C)cn4c3)c3nc(OC)cnc23)C1 (stereo not shown) [Compound 202, N-{8-fluoro-2-methylimidazo[1,2-a]pyridin-6-yl}-3-methoxy-8-[3-(methylamino)pyrrolidin-1-yl]quinoxaline-5-carboxamide; bis(trifluoroacetic acid)]	1 to 10
Cc1cn2cc(NC(=O)c3ccc(N4C[C@H]5CC[C@@H](C4)N5)c4ccnnc34)cc(F)c2n1 [Compound 108]	> 10

The remaining lines, values ahead:

IC50 [µM]	SMILES
1 to 10	Cc1cn2cc(NC(=O)c3ccc(C4CCNC5(CC5)C4)c4nccnc34)cc(F)c2n1 (stereo not shown) [Compound 375]
> 10	COCCOc1ccc2c(N3CCNCC3)ccc(C(=O)Nc3cc(F)c4nc(C)cn4c3)c2n1 [Compound 173, N-{8-fluoro-2-methylimidazo[1,2-a]pyridin-6-yl}-2-(2-methoxyethoxy)-5-(piperazin-1-yl)quinoline-8-carboxamide]
1 to 10	Cc1cn2cc(NC(=O)c3ccc(N4CCNC5(CC5)C4)c4nccnc34)cc(F)c2n1 [Compound 218, 8-{4,7-diazaspiro[2.5]octan-7-yl}-N-{8-fluoro-2-methylimidazo[1,2-a]pyridin-6-yl}quinoxaline-5-carboxamide]
> 10	Cc1c(O)c(NC(=O)c2ccc(N3CCNCC3)c3ccnnc23)cc2cn(C)nc12 [Compound 181, N-(6-hydroxy-2,7-dimethylindazol-5-yl)-5-(piperazin-1-yl)cinnoline-8-carboxamide]
1 to 10	Cc1cn2cc(NC(=O)c3ccc(N4CCN[C@@H](C)C4)c4nccnc34)cc(F)c2n1 [Compound 187, N-{8-fluoro-2-methylimidazo[1,2-a]pyridin-6-yl}-8-(3-methylpiperazin-1-yl) quinoxaline-5-carboxamide]
1 to 10	Cc1cnc2c(N3C[C@@H](C)N[C@@H](C)C3)ccc(C(=O)Nc3cc(F)c4nc(C)cn4c3)c2n1 [Compound 216, 8-((3R,5S)-3,5-dimethylpiperazin-1-yl)-N-{8-fluoro-2-methylimidazo[1,2-a]pyridin-6-yl}-3-methylquinoxaline-5-carboxamide]
> 10	CC(=O)c1cc(NC(=O)c2ccc(N3CCNCC3)c3ccnnc23)cn2cc(C)nc12 [Compound 163, N-{8-acetyl-2-methylimidazo[1,2-a]pyridin-6-yl}-5-(piperazin-1-yl)cinnoline-8-carboxamide]
1 to 10	Cc1cn2cc(NC(=O)c3ccc(N4CCNC5(CCOCC5)C4)c4nccnc34)cc(F)c2n1 [Compound 374]
0.1 to 1	Cc1cn2cc(NC(=O)c3ccc(C4CCNCC4)c4nccnc34)cc(F)c2n1 [Compound 371]
> 10	Cc1cn2cc(NC(=O)c3ccc(N4CCN(CCF)C5(CC5)C4)c4nccnc34)cc(F)c2n1 [Compound 370]
1 to 10	Cc1cn2cc(NC(=O)c3ccc(N4C[C@@H](C)N[C@@H](C)C4)c4nccnc34)cc(F)c2n1 [Compound 186, 8-(3,5-dimethylpiperazin-1-yl)-N-{8-fluoro-2-methylimidazo[1,2-a]pyridin-6-yl}quinoxaline-5-carboxamide]
1 to 10	Cc1ccc2c(N3CCC(N(C)C)CC3)ccc(C(=O)Nc3cc(F)c4nc(C)cn4c3)c2n1 [Compound 215, 5-[4-(dimethylamino)piperidin-1-yl]-N-{8-fluoro-2-methylimidazo[1,2-a]pyridin-6-yl}-2-methylquinoline-8-carboxamide]

— patent US20240409536A1, “COMPOUNDS AND METHODS FOR MODULATING SPLICING” (REMIX THERAPEUTICS INC., priority 2021, published 2024)
